pIC50: −log10 of the molar value.
How the values were obtained:
[1] = molecular target: recombinant purified human JAK1 (Homo sapiens (Human), UniProt P23458); test: in vitro JAK kinase assay on ADP Glo platform, JAK1; format: biochemical; conditions: 50 μM ATP, 1 hr at room temperature
Description: (§1) NCEs were screened using in vitro JAK (1, 2 and 3) kinase assay on ADP Glo platform (Promega). Fixed amount of recombinant purified human JAK (25 ng of JAK1 and 10 ng of JAK2 and JAK3 per reaction, from Life Technologies Ltd) were incubated with increasing concentration of NCEs in 1× kinase reaction buffer (40 mM Tris-Cl, pH7.5, 20 mM MgCl2, 0.1 mg/ml BSA and 50 μM DTT). Enzymatic reaction was initiated by adding a substrate cocktail containing 50 μM of ATP (final concentration) and 5 μg for JAK1 and 2.5 μg for JAK2 and JAK3 of polyGln4Tyr1 (Signal Chem) in total 25 μl of reaction in 96 well plate. The reaction was incubated at room temperature for 1 hr.
(§2) After 1 hr of incubation equal volume (25 μl per reaction) of ADP Glo was added and incubated at room temperature for 40 min.
(§3) This was followed by addition of kinase detection reagent (50 μl per reaction) and incubation at room temperature for 30 min. Finally, plate was read for luminescence at an integration time of 500 millisecond per well.
(§4) Data were plotted taking Enzyme with no inhibitor set as the 100% kinase activity. IC50 values were calculated using Graph Pad Prism software.

[2] = molecular target: recombinant purified human JAK2 (Homo sapiens (Human), UniProt O60674); test: in vitro JAK kinase assay on ADP Glo platform, JAK2; format: biochemical; conditions: 50 μM ATP, 1 hr at room temperature; read-out: JAK-2 IC50
Sequence of recombinant purified human JAK2 (O60674 whole entry): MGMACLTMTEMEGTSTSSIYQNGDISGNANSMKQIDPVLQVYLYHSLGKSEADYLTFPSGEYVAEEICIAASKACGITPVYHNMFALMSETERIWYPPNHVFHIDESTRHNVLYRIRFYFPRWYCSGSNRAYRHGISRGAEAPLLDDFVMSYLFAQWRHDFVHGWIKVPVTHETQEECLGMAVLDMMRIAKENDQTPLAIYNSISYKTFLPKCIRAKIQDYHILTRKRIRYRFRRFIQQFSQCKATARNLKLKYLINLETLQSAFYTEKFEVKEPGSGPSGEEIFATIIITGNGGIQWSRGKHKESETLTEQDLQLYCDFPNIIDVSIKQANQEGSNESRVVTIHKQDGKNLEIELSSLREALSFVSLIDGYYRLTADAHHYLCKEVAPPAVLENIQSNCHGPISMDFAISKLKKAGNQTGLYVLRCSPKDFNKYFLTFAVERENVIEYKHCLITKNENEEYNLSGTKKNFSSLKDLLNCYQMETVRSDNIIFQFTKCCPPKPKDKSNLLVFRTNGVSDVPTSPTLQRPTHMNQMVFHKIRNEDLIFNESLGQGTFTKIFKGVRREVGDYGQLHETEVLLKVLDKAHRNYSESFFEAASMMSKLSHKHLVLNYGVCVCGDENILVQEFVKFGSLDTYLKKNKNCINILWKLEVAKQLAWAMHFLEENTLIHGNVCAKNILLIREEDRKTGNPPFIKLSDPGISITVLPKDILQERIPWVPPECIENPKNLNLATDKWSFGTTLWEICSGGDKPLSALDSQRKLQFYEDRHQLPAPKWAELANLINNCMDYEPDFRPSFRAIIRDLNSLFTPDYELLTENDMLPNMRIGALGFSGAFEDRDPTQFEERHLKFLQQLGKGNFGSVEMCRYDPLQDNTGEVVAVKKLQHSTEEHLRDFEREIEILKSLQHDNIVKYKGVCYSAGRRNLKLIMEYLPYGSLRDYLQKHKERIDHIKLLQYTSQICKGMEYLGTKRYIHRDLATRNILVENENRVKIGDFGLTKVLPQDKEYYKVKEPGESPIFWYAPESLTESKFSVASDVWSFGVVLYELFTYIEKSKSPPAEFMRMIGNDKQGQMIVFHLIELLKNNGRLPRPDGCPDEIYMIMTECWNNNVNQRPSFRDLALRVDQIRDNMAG
Description: as §1, §2, §3, §4

[3] = molecular target: recombinant purified human JAK3 (Homo sapiens (Human), UniProt P52333); test: in vitro JAK kinase assay on ADP Glo platform, JAK3; format: biochemical; conditions: 50 μM ATP, 1 hr at room temperature; read-out: JAK-3 IC50
Sequence of recombinant purified human JAK3 (P52333 whole entry): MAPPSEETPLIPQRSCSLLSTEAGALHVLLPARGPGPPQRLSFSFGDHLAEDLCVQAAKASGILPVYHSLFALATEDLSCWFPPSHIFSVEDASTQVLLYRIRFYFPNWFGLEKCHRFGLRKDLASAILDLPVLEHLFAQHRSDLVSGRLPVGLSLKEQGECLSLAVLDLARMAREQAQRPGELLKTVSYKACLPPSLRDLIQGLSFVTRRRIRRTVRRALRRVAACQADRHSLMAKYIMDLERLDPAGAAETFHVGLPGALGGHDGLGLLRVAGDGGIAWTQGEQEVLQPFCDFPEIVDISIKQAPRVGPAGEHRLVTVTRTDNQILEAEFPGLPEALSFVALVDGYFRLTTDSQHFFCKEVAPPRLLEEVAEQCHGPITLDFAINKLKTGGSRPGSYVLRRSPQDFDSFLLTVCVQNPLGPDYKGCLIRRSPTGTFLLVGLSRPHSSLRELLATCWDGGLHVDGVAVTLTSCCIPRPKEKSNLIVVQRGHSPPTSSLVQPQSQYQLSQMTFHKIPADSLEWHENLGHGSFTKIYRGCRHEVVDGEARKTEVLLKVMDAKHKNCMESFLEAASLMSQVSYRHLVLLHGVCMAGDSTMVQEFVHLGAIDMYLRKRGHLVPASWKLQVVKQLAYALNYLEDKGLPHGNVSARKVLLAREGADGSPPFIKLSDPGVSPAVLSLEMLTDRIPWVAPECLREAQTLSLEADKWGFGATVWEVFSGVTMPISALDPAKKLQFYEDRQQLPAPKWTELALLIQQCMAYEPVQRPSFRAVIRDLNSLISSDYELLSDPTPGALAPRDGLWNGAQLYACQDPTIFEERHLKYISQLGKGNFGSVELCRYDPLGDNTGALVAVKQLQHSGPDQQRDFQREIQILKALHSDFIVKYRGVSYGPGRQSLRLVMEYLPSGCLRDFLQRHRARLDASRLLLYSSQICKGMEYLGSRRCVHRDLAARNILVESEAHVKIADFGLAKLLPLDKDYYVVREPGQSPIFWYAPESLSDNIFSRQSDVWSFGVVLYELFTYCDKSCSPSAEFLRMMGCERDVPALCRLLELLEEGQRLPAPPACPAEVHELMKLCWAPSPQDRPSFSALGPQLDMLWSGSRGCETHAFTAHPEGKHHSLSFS
Description: as §1, §2, §3, §4

[4] = test system: PGPS arthritis, PAW inflammation; test: Peptidogylcan Polysaccharide Polymers (PGPS) arthritis; format: in vivo, Sprague dawley rats; conditions: rats, values for day 16
Description: Female Sprague dawley rats were primed with an intra-articular injection of 20 μl of PGPS at 0.5 mg/ml of rhamnose in the right ankle. At 2 weeks the ankle diameters were measured with plethysmometer and rats assigned to groups of similar distribution of initial joint diameters. Rats then received their first dose of compound followed 1 h later by an i.v. injection of 0.5 ml of PGPS (0.5 mg/ml of rhamnose) in the tail vein. Compounds were dosed at 10 mg/kg and ankle diameters measured for 3 days [i.e. day 15, 16, 17]. Values are given for day 16.

Sequence of recombinant purified human JAK1 (P23458 whole entry): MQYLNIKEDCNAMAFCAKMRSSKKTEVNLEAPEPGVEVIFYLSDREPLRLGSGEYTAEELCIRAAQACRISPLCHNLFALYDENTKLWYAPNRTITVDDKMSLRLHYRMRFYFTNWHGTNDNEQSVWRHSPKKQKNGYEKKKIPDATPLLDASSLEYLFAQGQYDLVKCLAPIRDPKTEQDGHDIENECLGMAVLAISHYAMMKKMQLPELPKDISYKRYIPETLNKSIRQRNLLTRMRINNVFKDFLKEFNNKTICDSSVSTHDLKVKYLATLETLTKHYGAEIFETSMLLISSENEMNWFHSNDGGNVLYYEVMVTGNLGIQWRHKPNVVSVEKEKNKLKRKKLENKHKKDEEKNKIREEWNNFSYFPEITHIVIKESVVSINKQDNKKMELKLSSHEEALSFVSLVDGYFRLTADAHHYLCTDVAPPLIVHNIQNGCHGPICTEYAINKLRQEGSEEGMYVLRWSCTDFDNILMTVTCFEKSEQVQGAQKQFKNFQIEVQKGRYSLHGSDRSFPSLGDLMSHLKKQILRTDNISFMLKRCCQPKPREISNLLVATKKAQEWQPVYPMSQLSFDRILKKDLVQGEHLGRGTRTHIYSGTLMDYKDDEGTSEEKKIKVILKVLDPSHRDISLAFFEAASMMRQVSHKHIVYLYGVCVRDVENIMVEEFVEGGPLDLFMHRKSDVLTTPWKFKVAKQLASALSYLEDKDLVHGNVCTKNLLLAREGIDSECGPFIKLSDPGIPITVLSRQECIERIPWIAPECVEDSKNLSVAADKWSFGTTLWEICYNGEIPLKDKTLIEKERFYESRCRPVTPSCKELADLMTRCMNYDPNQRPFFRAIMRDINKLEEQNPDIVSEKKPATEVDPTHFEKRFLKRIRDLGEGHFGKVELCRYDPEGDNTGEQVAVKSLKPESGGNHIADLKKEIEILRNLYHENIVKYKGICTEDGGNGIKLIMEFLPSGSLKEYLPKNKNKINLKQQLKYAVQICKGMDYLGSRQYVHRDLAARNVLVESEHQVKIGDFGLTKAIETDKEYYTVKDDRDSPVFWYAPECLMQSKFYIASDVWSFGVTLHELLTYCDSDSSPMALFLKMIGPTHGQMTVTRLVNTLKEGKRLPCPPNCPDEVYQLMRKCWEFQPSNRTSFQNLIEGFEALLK

Row | SMILES | pIC50 [1] | pIC50 [2] | pIC50 [3] | % Reduction in PAW inflammation at dose 10 mg/Kg [4] [%]
1 | N#CCNC(=O)c1ccc(-c2ccnc(Nc3ccc(N4CCC(n5cncn5)CC4)cc3)n2)cc1 [Example 4, 4-(2-((4-(4-(1H-1,2,4-triazol-1-yl)piperidin-1-yl)phenyl)amino)pyrimidin-4-yl)-N-(cyanomethyl)benzamide] | 7.68 | 7.77 | 7.18 | 52
2 | Cc1nnc(N2CCN(c3ccc(Nc4nccc(-c5ccc(C(=O)NCC#N)cc5)n4)cc3)CC2)o1 [Example 36, N-(cyanomethyl)-4-(2-((4-(4-(5-methyl-1,3,4-oxadiazol-2-yl)piperazin-1-yl)phenyl)amino)pyrimidin-4-yl)benzamide] | 8.04 | – | 7.33 | –
3 | N#CCNC(=O)c1ccc(-c2ccnc(Nc3ccc(N4CCN(C5CCS(=O)(=O)CC5)CC4)cc3)n2)cc1 [Example 7, N-(cyanomethyl)-4-(2-((4-(4-(1,1-dioxidotetrahydro-2H-thiopyran-4-yl)piperazin-1-yl)phenyl)amino)pyrimidin-4-yl)benzamide] | 7.85 | 7.92 | 7.21 | –
4 | N#CCNC(=O)c1ccc(-c2ccnc(Nc3ccc(N4CCN(C5CCS(=O)(=O)C5)CC4)cc3)n2)cc1 (centres unmarked) [Example 9, N-(cyanomethyl)-4-(2-((4-(4-(1,1-dioxidotetrahydrothiophen-3-yl)piperazin-1-yl)phenyl)amino)pyrimidin-4-yl)benzamide] | 7.85 | 8.10 | 7.40 | –
5 | N#CCNC(=O)c1ccc(-c2ccnc(Nc3ccc(N4CCC(N5CCOC5=O)CC4)cc3)n2)cc1 [Example 12, N-(cyanomethyl)-4-(2-((4-(4-(2-oxooxazolidin-3-yl)piperidin-1-yl)phenyl)amino)pyrimidin-4-yl)benzamide] | 7.60 | – | 7.11 | –
6 | CC(=O)N1C2CC1CN(C1CCN(c3ccc(Nc4nccc(-c5ccc(C(=O)NCC#N)cc5)n4)cc3)CC1)C2 [Example 39, 4-(2-((4-(4-(6-acetyl-3,6-diazabicyclo[3.1.1]heptan-3-yl)piperidin-1-yl)phenyl)amino)pyrimidin-4-yl)-N-(cyanomethyl)benzamide] | 8.06 | – | 7.29 | –
7 | N#CCNC(=O)c1ccc(-c2ccnc(Nc3ccc(N4CCC(N5CCC6(CCCO6)CC5)CC4)cc3)n2)cc1 [Example 24, 4-(2-((4-(4-(1-oxa-8-azaspiro[4.5]decan-8-yl)piperidin-1-yl)phenyl)amino)pyrimidin-4-yl)-N-(cyanomethyl)benzamide] | 8.30 | 8.30 | 7.64 | 41
8 | COc1nnc(C2CCN(c3ccc(Nc4nccc(-c5ccc(C(=O)NCC#N)cc5)n4)cc3)CC2)o1 [Example 31, N-(cyanomethyl)-4-(2-((4-(4-(5-methoxy-1,3,4-oxadiazol-2-yl)piperidin-1-yl)phenyl)amino)pyrimidin-4-yl)benzamide] | 7.70 | 7.77 | 7.13 | –
9 | N#CCNC(=O)c1ccc(-c2ccnc(Nc3ccc(N4CCN(C5=NCCN5)CC4)cc3)n2)cc1 [Example 33, N-(cyanomethyl)-4-(2-((4-(4-(4,5-dihydro-1H-imidazol-2-yl)piperazin-1-yl)phenyl)amino)pyrimidin-4-yl)benzamide] | 7.70 | 7.96 | 7.27 | –
10 | N#CCNC(=O)c1ccc(-c2ccnc(Nc3ccc(N4CCC(N5CCCC5)C4)cc3)n2)cc1 (centres unmarked) [Example 6, 4-(2-((4-([1,3′-Bipyrrolidin]-1′-yl)phenyl)amino)pyrimidin-4-yl)-N-(cyanomethyl)benzamide] | 7.80 | 7.72 | 6.81 | –
11 | N#CCNC(=O)c1ccc(-c2ccnc(Nc3ccc(N4CCC(N5CCC6(CCC(=O)O6)CC5)CC4)cc3)n2)cc1 [Example 28, N-(cyanomethyl)-4-(2-((4-(4-(2-oxo-1-oxa-8-azaspiro[4.5]decan-8-yl)piperidin-1-yl)phenyl)amino)pyrimidin-4-yl)benzamide] | 7.96 | 8.22 | 7.26 | –
12 | Cc1nnc(C2CCN(c3ccc(Nc4ncc(C)c(-c5ccc(C(=O)NCC#N)cc5)n4)cc3)CC2)o1 [Example 43, N-(cyanomethyl)-4-(5-methyl-2-((4-(4-(5-methyl-1,3,4-oxadiazol-2-yl)piperidin-1-yl)phenyl)amino)pyrimidin-4-yl)benzamide] | 8.92 | 8.59 | 7.28 | –
13 | N#CCNC(=O)c1ccc(-c2ccnc(Nc3ccc(N4CCC(N5CCOCC5)CC4)cc3)n2)cc1 [Example 3, N-(cyanomethyl)-4-(2-((4-(4-morpholinopiperidin-1-yl)phenyl)amino)pyrimidin-4-yl)benzamide] | – | – | – | 56
14 | N#CCNC(=O)c1ccc(-c2ccnc(Nc3ccc(N4CCC(N5CCCC5=O)CC4)cc3)n2)cc1 [Example 1, N-(cyanomethyl)-4-(2-((4-(4-(2-oxopyrrolidin-1-yl)piperidin-1-yl)phenyl)amino)pyrimidin-4-yl)benzamide] | 7.92 | – | 7.14 | 51
15 | N#CCNC(=O)c1ccc(-c2ccnc(Nc3ccc(N4CCC(N5CCCS5(=O)=O)CC4)cc3)n2)cc1 [Example 2, N-(cyanomethyl)-4-(2-((4-(4-(1,1-dioxidoisothiazolidin-2-yl)piperidin-1-yl)phenyl)amino)pyrimidin-4-yl)benzamide] | 8.29 | 8.40 | 7.29 | –
16 | Cc1nnc(C2CCN(c3ccc(Nc4nccc(-c5ccc(C(=O)NCC#N)cc5)n4)cc3)CC2)o1 [Example 25, N-(cyanomethyl)-4-(2-((4-(4-(5-methyl-1,3,4-oxadiazol-2-yl)piperidin-1-yl)phenyl)amino)pyrimidin-4-yl)benzamide] | 7.92 | – | – | 63
17 | N#CCNC(=O)c1ccc(-c2ccnc(Nc3ccc(N4CCC(c5nnco5)CC4)cc3)n2)cc1 [Example 19, 4-(2-((4-(4-(1,3,4-oxadiazol-2-yl)piperidin-1-yl)phenyl)amino)pyrimidin-4-yl)-N-(cyanomethyl)benzamide] | 8.00 | 8.15 | 7.40 | –
18 | N#CCNC(=O)c1ccc(-c2ccnc(Nc3ccc(N4CCC(N5CCNC5=O)CC4)cc3)n2)cc1 [Example 18, N-(cyanomethyl)-4-(2-((4-(4-(2-oxoimidazolidin-1-yl)piperidin-1-yl)phenyl)amino)pyrimidin-4-yl)benzamide] | 8.05 | 7.96 | 7.30 | –
19 | Cc1cnc(Nc2ccc(N3CCC(N4CCOCC4)CC3)cc2)nc1-c1ccc(C(=O)NCC#N)cc1 [Example 40, N-(cyanomethyl)-4-(5-methyl-2-((4-(4-morpholinopiperidin-1-yl)phenyl)amino)pyrimidin-4-yl)benzamide] | 8.89 | 8.55 | 7.49 | –
20 | N#CCNC(=O)c1ccc(-c2ccnc(Nc3ccc(N4CCC(N5CC6OCCOC6C5)C4)cc3)n2)cc1 (centres unmarked) [Example 35, N-(cyanomethyl)-4-(2-((4-(3-(tetrahydro-2H-[1,4]dioxino[2,3-c]pyrrol-6(3H)-yl)pyrrolidin-1-yl)phenyl)amino)pyrimidin-4-yl)benzamide] | 7.82 | 7.68 | 6.86 | –
21 | Cc1cnc(Nc2ccc(N3CCC(N4CCCC4=O)CC3)cc2)nc1-c1ccc(C(=O)NCC#N)cc1 [Example 41, N-(cyanomethyl)-4-(5-methyl-2-((4-(4-(2-oxopyrrolidin-1-yl)piperidin-1-yl)phenyl)amino)pyrimidin-4-yl)benzamide] | 9.22 | 8.60 | 7.97 | –
22 | N#CCNC(=O)c1ccc(-c2ccnc(Nc3ccc(N4CCC(N5CC6OCCOC6C5)CC4)cc3)n2)cc1 (centres unmarked) [Example 27, N-(cyanomethyl)-4-(2-((4-(4-(tetrahydro-2H-[1,4]dioxino[2,3-c]pyrrol-6(3H)-yl)piperidin-1-yl)phenyl)amino)pyrimidin-4-yl)benzamide] | 8.00 | 8.30 | 7.31 | –
23 | Cc1cnc(Nc2ccc(N3CCC(N4CCC5(CCCO5)CC4)CC3)cc2)nc1-c1ccc(C(=O)NCC#N)cc1 [Example 42, 4-(2-((4-(4-(1-oxa-8-azaspiro[4.5]decan-8-yl)piperidin-1-yl)phenyl)amino)-5-methylpyrimidin-4-yl)-N-(cyanomethyl)benzamide] | 8.60 | 8.37 | 7.23 | –
24 | N#CCNC(=O)c1ccc(-c2ccnc(Nc3ccc(N4CCN(C5CCOCC5)CC4)cc3)n2)cc1 [Example 15, N-(cyanomethyl)-4-(2-((4-(4-(tetrahydro-2H-pyran-4-yl)piperazin-1-yl)phenyl)amino)pyrimidin-4-yl)benzamide] | 7.80 | 7.96 | 7.06 | –

Reference: US9556148B2, “N-cyanomethylamides as inhibitors of janus kinase” (CADILA HEALTHCARE LIMITED, priority 2013, dated 2017)
